The results in this text go back to patent US20250136581A1, “SUBSTITUTED TRIAZOLE DERIVATIVE, PREPARATION METHOD THEREFOR, PHARMACEUTICAL COMPOSITION THEREOF, AND USE THEREOF” (SHANGHAI SIMR BIOTECHNOLOGY CO., LTD., priority 2021, published 2025).

Read-outs that look alike come from different tables or passages of the source.

Assay [1] deals with α5-GABAA receptor (α5, β3, γ2 subunits) (Homo sapiens (Human), UniProt P18507+P31644). The experiment in a line: Whole cell patch clamp, inverse agonist efficacy in HEK293 cells expressing α5-GABAA receptor. It is filed as cell-based. The conditions noted are these: GABA 0.05 μM, −60 mV; for inhibition at 0.1 µM: HEK293, drug 100 nM, read-out: Compound inverse agonist efficacy %. Summed up: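 Stable HEK293 line co-expressing human α5, β3, γ2 subunits; whole-cell patch clamp at −60 mV, inward current evoked by 0.05 μM GABA, then compound at 100 nM in GABA solution applied. Effect derived from leak, pre- and post-drug GABA currents.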
Background: Patch clamp records ionic current or voltage across a cell membrane.

Assay [2] addresses human α5β3γ2 receptors (α5-GABAA receptor) (Homo sapiens (Human), UniProt P18507+P31644). The experiment in a line: 3H-flunitrazepam competition binding, human α5β3γ2 GABAA receptor. The conditions noted are these: HEK293 cell membranes, 1 nM 3H-flunitrazepam. Summed up: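 HEK293 membranes stably expressing each human receptor subtype ([…]) competed against 1 nM 3H-flunitrazepam in Tris buffer, 1 h at room temperature; flumazenil defined the low-signal control. Eight-point 4-fold test-compound dilutions; GF/C filtration and scintillation counting gave IC50 by curve fitting, converted to Ki.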

For orientation: Ki means a measure of affinity in units of concentration, obtained from inhibition or displacement. Take `Cc1nnn(-c2ccc(C(F)F)cc2)c1COc1ccc(C2=CCCOC2)nn1` [Example 90, 3-((1-(4-(Difluoromethyl)phenyl)-4-methyl-1H-1,2,3-triazol-5-yl)methoxy)-6-(5,6-dihydro-2H-pyran-3-yl)pyridazine]: the inhibition at 0.1 µM in assay [1] worked out at 49.2%. Also, the Ki in assay [2] (read-out: α5-GABAAR Ki) came to 0.75 nM.

Regarding `Cc1nnn(-c2ccc(C(F)F)cc2)c1COc1ccc(N2CC(=O)N3CCN(Cc4ncccn4)CC3C2)nn1` (centres unmarked) [Example 92, 2-(6-((1-(4-(Difluoromethyl)phenyl)-4-methyl-1H-1,2,3-triazol-5-yl)methoxy)pyridazin-3-yl)-8-(pyrimidin-2-ylmethyl)octahydro-4H-pyrazino[1,2-a]pyrazin-4-one], the inhibition at 0.1 µM in assay [1] is 49.7%. The Ki in assay [2] (read-out: α5-GABAAR Ki) came out at 1.1 nM.

Regarding `Cc1nnn(-c2ccc(C(F)F)cc2)c1COc1ccc(N2CCN3[C@@H]4CCC[C@@H]4NC(=O)[C@@H]3C2)nn1` [Example 197, (4aS,6aS,9aR)-3-(6-((1-(4-(Difluoromethyl)phenyl)-4-methyl-1H-1,2,3-triazol-5-yl)methoxy)pyridazin-3-yl)decahydrocyclopenta[e]pyrazino[1,2-a]pyrazin-5(1H)-one], in assay [1], the inhibition at 0.1 µM was determined as 52.4%. Further, the Ki in assay [2] (α5-GABAAR Ki) was 4.95 nM.

In the case of `Cc1nnn(-c2ccc(C(F)F)cc2)c1COc1ccc(N2CC3COCCN3C2=O)nn1` (centres unmarked) [Example 180, 2-(6-((1-(4-(Difluoromethyl)phenyl)-4-methyl-1H-1,2,3-triazol-5-yl)methoxy)pyridazin-3-yl)hexahydro-3H-imidazo[5,1-c][1,4]oxazin-3-one], the inhibition at 0.1 µM in assay [1] worked out at 40.3%. In addition, in assay [2] (read-out: α5-GABAAR Ki), the Ki came out at 1.19 nM.

With `Cc1nnn(-c2ccc(C(F)F)cc2)c1COc1cnc(N2CCN3CCNC(=O)[C@@H]3C2)cn1` [Example 178, (S)-8-(5-((1-(4-(Difluoromethyl)phenyl)-4-methyl-1H-1,2,3-triazol-5-yl)methoxy)pyrazin-2-yl)hexahydro-2H-pyrazino[1,2-a]pyrazin-1(6H)-one], in assay [1], the inhibition at 0.1 µM is 49.7%. In addition, the Ki in assay [2] (read-out: α5-GABAAR Ki) was found to be 17.2 nM.

Turning to `Cc1nnn(-c2ccc(C(F)F)cc2)c1COc1ccc(N2CCN(CC3CCCO3)C(=O)C2)nn1` (centres unmarked) [Example 96, 4-(6-((1-(4-(Difluoromethyl)phenyl)-4-methyl-1H-1,2,3-triazol-5-yl)methoxy)pyridazin-3-yl)-1-((tetrahydrofuran-2-yl)methyl)piperazin-2-one], the inhibition at 0.1 µM in assay [1] stood at 46.5%. Further, the Ki in assay [2] (read-out: α5-GABAAR Ki) came out at 1.34 nM.

On to `Cc1nnn(-c2ccc(F)cn2)c1COc1ccc(N2CCNC(=O)C2)nn1` [Example 73, 4-(6-((1-(5-Fluoropyridin-2-yl)-4-methyl-1H-1,2,3-triazol-5-yl)methoxy)pyridazin-3-yl)piperazin-2-one], for which the inhibition at 0.1 µM in assay [1] turned out to be 41.3%. For the same compound, the Ki in assay [2] (read-out: α5-GABAAR Ki) was 4.93 nM.

As to `Cc1nnn(-c2ccc(C(F)F)cc2)c1COc1ccc(N2CCN(CCCc3ccc(C#N)cc3)C(=O)C2)nn1` [Example 145, 4-(3-(4-(6-((1-(4-(Difluoromethyl)phenyl)-4-methyl-1H-1,2,3-triazol-5-yl)methoxy)pyridazin-3-yl)-2-oxopiperazin-1-yl)propyl)benzonitrile], in assay [1], the inhibition at 0.1 µM stood at 69%. Moreover, the Ki in assay [2] (read-out: α5-GABAAR Ki) came to 1.27 nM.

On to `Cc1nnn(-c2ccc(C(F)F)cc2)c1COc1ccc(N2CCN3CC(C(C)C)NC(=O)[C@@H]3C2)nn1` (stereo partly drawn) [Example 200, (9aS)-8-(6-((1-(4-(Difluoromethyl)phenyl)-4-methyl-1H-1,2,3-triazol-5-yl)methoxy)pyridazin-3-yl)-3-isopropylhexahydro-2H-pyrazino[1,2-a]pyrazin-1(6H)-one], for which the inhibition at 0.1 µM in assay [1] was 60.1%. In assay [2] (read-out: α5-GABAAR Ki), the Ki worked out at 1.9 nM.

On to `Cc1nnn(-c2ccc(C(F)F)cc2)c1COc1ccc(N2CCN[C@@H](C(=O)O)C2)nn1` [Example 28, (R)-4-(6-((1-(4-(Difluoromethyl)phenyl)-4-methyl-1H-1,2,3-triazol-5-yl)methoxy)pyridazin-3-yl)piperazine-2-carboxylic acid], for which the inhibition at 0.1 µM in assay [1] was 47.7%. Besides, in assay [2] (read-out: α5-GABAAR Ki), the Ki is 4.31 nM.

On to `Cc1nnn(-c2ccc(C(F)F)cc2)c1COc1ccc(N2CC(C(=O)NC3CC3)C2)nn1` [Example 44, N-Cyclopropyl-1-(6-((1-(4-(difluoromethyl)phenyl)-4-methyl-1H-1,2,3-triazol-5-yl)methoxy)pyridazin-3-yl)azetidine-3-carboxamide], for which the inhibition at 0.1 µM in assay [1] stood at 49.6%. Further, the Ki in assay [2] (read-out: α5-GABAAR Ki) is 2.31 nM.

As for `Cc1nnn(-c2ccc(C(F)F)cc2)c1COc1ccc(N2CCN(CC3CCOC3)C(=O)C2)nn1` (centres unmarked) [Example 98, 4-(6-((1-(4-(Difluoromethyl)phenyl)-4-methyl-1H-1,2,3-triazol-5-yl)methoxy)pyridazin-3-yl)-1-((tetrahydrofuran-3-yl)methyl)piperazin-2-one], in assay [1], the inhibition at 0.1 µM amounted to 53.7%. Further, the Ki in assay [2] (read-out: α5-GABAAR Ki) is 1.53 nM.

On to `O=C1CN(c2ccc(OCc3c(Cl)nnn3-c3ccc(F)cc3)nn2)CCN1` [Example 189, 4-(6-((4-Chloro-1-(4-fluorophenyl)-1H-1,2,3-triazol-5-yl)methoxy)pyridazin-3-yl)piperazin-2-one], for which the inhibition at 0.1 µM in assay [1] worked out at 42.1%. Further, the Ki in assay [2] (read-out: α5-GABAAR Ki) came to 9.44 nM.

`Cc1nnn(-c2ccc(C(F)F)cc2)c1COc1ccc(N2CCN3CC(CC(C)C)NC(=O)[C@@H]3C2)nn1` (single isomer, unassigned) [Example 209]: the “Compound inverse agonist efficacy %” value in assay [1] (drug 100 nM) was −52.08%. Further, the Ki in assay [2] (read-out: α5-GABAAR Ki) was 2.04 nM.

As for `Cc1nnn(-c2ccc(Cl)cc2)c1COc1ccc(N2CCN3CCNC(=O)[C@@H]3C2)nn1` [Example 163, (S)-8-(6-((1-(4-Chlorophenyl)-4-methyl-1H-1,2,3-triazol-5-yl)methoxy)pyridazin-3-yl)hexahydro-2H-pyrazino[1,2-a]pyrazin-1(6H)-one], the inhibition at 0.1 µM in assay [1] worked out at 43.6%. The Ki in assay [2] (read-out: α5-GABAAR Ki) is 26.4 nM.

Turning to `Cc1nnn(-c2ccc(C(F)F)cc2)c1COc1ccc(N2CC(C(=O)N3CCOCC3)C2)cn1` [Example 160, (1-(6-((1-(4-(Difluoromethyl)phenyl)-4-methyl-1H-1,2,3-triazol-5-yl)methoxy)pyridin-3-yl)azetidin-3-yl)(morpholino)methanone], the inhibition at 0.1 µM in assay [1] turned out to be 42.7%. Further, in assay [2] (read-out: α5-GABAAR Ki), the Ki is 6.21 nM.
